Reference: patent publication US20260248922A1, “TREATMENT OF SIGNS, SYMPTOMS AND/OR COMPLICATIONS OF VIRAL, BACTERIAL, PROTOZOAL, AND/OR FUNGAL INFECTIONS BY HIGH PENETRATION PRODRUGS” (priority 2022, published 2026)

Columns and labels:
COVID-19 [1] = experiment: COVID-19 infection mouse model (Example 70); format: in vivo, hACE2 mice; settings: transdermal once a day
Experimental: (§1) A total of seventy hACE2 mice (7 groups, 10/group) were used in this study. At day 0, mice were anesthetized with isoflurane and held in a dorsal recumbent position for administration of 3×10 PFU/mouse COVID-19 by internasal instillation, from day 1 post challenge, mice were received a single dose of different concentrations of test article or vehicle control once a day up to 15th day with dose initiation on day 1 post challenge. Group 1 served as an infected control group and was treated with vehicle (35% ethanol). […] Mice were observed following viral challenge for clinical signs of illness including body weights, health score, morbidity and mortality.
Lung lesions and peribronchiolitis of all deceased and surviving animals were characterized (Table 17).

MRSA = experiment: Sepsis model of MRSA infection in mice (Example 79); format: in vivo, C57/BL6 mice; settings: transdermal once a day
Description: as §1, with “C57/BL6” for “hACE2”, “2×10^7CFU S. aureus” for “3×10 PFU/mouse COVID-19”, “intraperitoneal (IP) injections,” for “internasal instillation,”, “hour 2” for “day 1”, “MRSA” for “viral”

LPS-induced fever = experiment: Antipyretic activity, fever induced by LPS in rats; format: in vivo, Sprague Dawley rats; settings: transdermal, 20 mg/kg
Experimental: The body temperature of rats was taken at 0 (2 hours after the challenge), 90 min, 180 min, and 270 min after the administration of the test compounds.

H1N1 virus = H1N1 virus infection mouse model (Example 65); format: in vivo, mice; settings: transdermal once a day
Experimental: as §1, with “seventy” for “seventy hACE2”, “of 0.1×TCID50/mouse virus (new batch)” for “of 3×10 PFU/mouse COVID-19”, “day 2” for “day 1”
Lung lesions and peribronchiolitis of all deceased and surviving animals were characterized (Table 7).

[2] = test system: cecal slurry-induced sepsis; experiment: Cecal slurry-induced sepsis mouse model (Example 75); format: in vivo, C57/BL6 mice; settings: transdermal once a day
Experimental: as §1, with “C57/BL6” for “hACE2”, “10 mg/mouse cecal slurry” for “3×10 PFU/mouse COVID-19”, “intraperitoneal (IP) injections,” for “internasal instillation,”, “hour 2” for “day 1”

COVID-19 [3] = experiment: Phase 2 placebo-controlled study in COVID-19 infection in hospitalized adults (Example 81); format: in vivo, human; settings: hospitalized COVID-19 patients, 7% solution in 15% ethanol sprayed on skin BID for 28 days
Description: Patients cannot be enrolled or randomized before all eligibility criteria (including test results) are confirmed.
Inclusion criteria: • 1. Admitted to a hospital with pulmonary symptoms of active COVID-19. • 2. Patient (or legally authorized representative) provides informed consent prior to initiation of any study procedures. • 3. Patient (or legally authorized representative) understands and agrees to comply with planned study procedures. • 4. Male or nonpregnant female adult ≥18 years of age at time of enrollment. • 5. Has laboratory confirmed severe acute respiratory syndrome coronavirus 2 (COVID-19) infection as determined by polymerase chain reaction (PCR) or other commercial or public health assay (serology is not acceptable) in any specimen, as documented by either of the following: • a. Laboratory confirmed COVID-19 infection by method as defined above, in sample collected <72 hours prior to randomization; OR • b. […] Has a room-air SpO2<93% and a score of 4 (hospitalized, oxygen by mask or nasal prongs), or room-air SpO2<93% and a score of 5 (hospitalized, noninvasive ventilation or high-flow oxygen), or a score 6 (hospitalized, intubation and mechanical ventilation) in the ordinal scale, which specifically is as follows: • 0) Uninfected, no clinical or virological evidence of infection • 1) Ambulatory (not diagnosed), no limitations of activities. • 2) Ambulatory (not diagnosed), limitation on activities and/or requiring home oxygen • 3) Diagnosed (mild disease), no requiring supplemental oxygen; • 4) Diagnosed (moderate disease), requiring supplemental oxygen (by mask or nasal prongs)—requiring ongoing medical care (COVID-19 related or otherwise); • 5) Diagnosed (severe disease), non-invasive ventilation or high-flow oxygen; • 6) Diagnosed (severe disease), intubation and mechanical ventilation; • 7) Diagnosed (severe disease), ventilation+additional organ support-pressors, RRT, or extracorporeal membrane oxygenation (ECMO); • 8) Death. • 7. […]

[4] = Skin penetration through rabbit skin in vitro, modified Franz cells; settings: receiving fluid pure water
paw edema = experiment: Antiinflammatory activity, carrageenan paw edema in rats; format: in vivo, Wistar Rats; settings: transdermal, 20 mg/kg
[5] = T = 0 min (2 hours after LPS challenge)
[6] = 2 h (before test articles treatment)
[7] = 6 h (4 hours after administration)
[8] = time 0 (before carrageenan challenge)

COc1ccc2cc(C(C)C(=O)OCC3CCCN3)ccc2c1.Cl (stereo not shown) [Example 16, (pyrrolidin-2-yl)methyl 2-(6-methoxy-2-naphthyl) propanoate hydrochloride]
survival (COVID-19 [1]; group 2, low dose 25.1 mg/kg): 30% | survival (COVID-19 [1]; group 3, mid dose 50.2 mg/kg): 50% | survival (COVID-19 [1]; group 4, high dose 100.3 mg/kg): 50% | survival (MRSA; group 2, low dose 25.1 mg/kg): 20% | survival (MRSA; group 3, mid dose 50.2 mg/kg): 30% | survival (MRSA; group 4, high dose 100.3 mg/kg): 40% | body temperature (Mean) (LPS-induced fever; [5]): 38.30 | body temperature (Mean) (LPS-induced fever; T = 90 min): 37.38 | body temperature (Mean) (LPS-induced fever; T = 180 min): 36.79 | body temperature (Mean) (LPS-induced fever; T = 270 min): 36.53 | survival (H1N1 virus; group 2, low dose 25.1 mg/kg): 20% | survival (H1N1 virus; group 3, mid dose 50.2 mg/kg): 20% | survival (H1N1 virus; group 4, high dose 100.3 mg/kg): 40%

CC(C(=O)OCC1CCCN1)c1cccc(Oc2ccccc2)c1.Cl (stereo not shown) [Example 30, (pyrrolidin-2-yl)methyl 2-(3-phenoxyphenyl) propionate hydrochloride]
survival ([2]; group 2, low dose 25.1 mg/kg): 10% | survival ([2]; group 3, mid dose 50.2 mg/kg): 30% | survival ([2]; group 4, high dose 100.3 mg/kg): 40%

CCN(CC)CCOC(=O)c1ccccc1OC(C)=O.Cl [Example 4]
hospital stay time, average (COVID-19 [3]): about 4 days | time to an improvement of 2 categories using 9-point ordinal scale, average (COVID-19 [3]): about 3 days | time to maintain peripheral capillary oxygen saturation (SpO2) of >93% without oxygen support, average (COVID-19 [3]): about 3 days

Cl.O=C(Cc1ccccc1Nc1c(Cl)cccc1Cl)OCC1CCCN1 (stereo not shown) [Example 1]
The cumulative amount of test compounds ([4]; 1 h): 0.48 mg | The cumulative amount of test compounds ([4]; 2 h): 0.99 mg | The cumulative amount of test compounds ([4]; 4 h): 2.03 mg | The cumulative amount of test compounds ([4]; 8 h): 4.09 mg | Paw Volume Mean (paw edema; [6]): 1.719 mL | Paw Volume Mean (paw edema; [7]): 1.314 mL | Paw Volume Mean (paw edema; [8]): 1.245 mL | body temperature (Mean) (LPS-induced fever; [5]): 38.38 | body temperature (Mean) (LPS-induced fever; T = 90 min): 37.10 | body temperature (Mean) (LPS-induced fever; T = 180 min): 36.42 | body temperature (Mean) (LPS-induced fever; T = 270 min): 36.41 | survival (H1N1 virus; group 5, low dose 24.6 mg/kg): 70% | survival (H1N1 virus; group 6, mid dose 49.2 mg/kg): 60% | survival (H1N1 virus; group 7, high dose 98.4 mg/kg): 50%

CCN(CC)CCOC(=O)C(C)c1ccc(CC(C)C)cc1.Cl (stereo not shown) [Example 2]
survival (COVID-19 [1]; group 5, low dose 24.6 mg/kg): 60% | survival (COVID-19 [1]; group 6, mid dose 49.2 mg/kg): 50% | survival (COVID-19 [1]; group 7, high dose 98.4 mg/kg): 50% | survival ([2]; group 5, low dose 24.6 mg/kg): 50% | survival ([2]; group 6, mid dose 49.2 mg/kg): 50% | survival ([2]; group 7, high dose 98.4 mg/kg): 40% | survival (MRSA; group 5, low dose 24.6 mg/kg): 40% | survival (MRSA; group 6, mid dose 49.2 mg/kg): 60% | survival (MRSA; group 7, high dose 98.4 mg/kg): 50% | Paw Volume Mean (paw edema; [6]): 1.697 mL | Paw Volume Mean (paw edema; [7]): 1.402 mL | Paw Volume Mean (paw edema; [8]): 1.225 mL | body temperature (Mean) (LPS-induced fever; [5]): 38.31 | body temperature (Mean) (LPS-induced fever; T = 90 min): 37.57 | body temperature (Mean) (LPS-induced fever; T = 180 min): 36.86 | body temperature (Mean) (LPS-induced fever; T = 270 min): 36.63
